Laboratory results as given in patent US20090068290A1, “BIFEPRUNOX DOSES FOR TREATING SCHIZOPHRENIA” (priority 2006, published 2009).

What was measured:
[1] = tested on: adult subjects with schizophrenia; assay: CGI Improvement score, Clinical Study Two; type: in vivo, human; conditions: LOCF
Procedure: (§1) Rating scale assessments were performed weekly, except for week 5, to measure the change from baseline to endpoint of the PANSS total score. Other assessments included: PANSS positive symptom subscale score, PANSS negative symptom subscale score, PANSS general pschopathology subscale score, BPRS total score, BPRS psychosis score, the CGI-S score, the CGI-I score, responder rates based on the PANSS total score, and the Calgary Depression Scale for Schizophrenia (CDSS). […]
(§2) Subjects who completed this study had the option to continue in the long-term. […] Risperidone-treated subjects were titrated from 2 mg to 6 mg daily over a three-day period and were subsequently maintained at 6 mg/day for the remainder of the treatment period. […] Blood samples were also obtained at Screening/Baseline, Week 3, and Week 6 for clinical laboratory assessments.

[2] = tested on: adult subjects with schizophrenia; assay: BPRS psychosis cluster score, Clinical Study Two; type: in vivo, human; conditions: for Change from Baseline in BPRS Psychosis Cluster Score, Mean (SD) / Change from Baseline in BPRS Psychosis Cluster Score, Median / Change from Baseline in BPRS Psychosis Cluster Score, Trt Effect (bifeprunox—placebo) / mean change (SD) from Baseline to Endpoint in BPRS psychosis cluster score: LOCF; for Change from Baseline in BPRS Psychosis Cluster Score, Mean (SD) / Change from Baseline in BPRS Psychosis Cluster Score, Median / Change from Baseline in BPRS Psychosis Cluster Score, Trt Effect (bifeprunox—placebo): ITT population; for BPRS psychosis cluster score, treatment effect (bifeprunox—placebo): Endpoint LOCF; for mean change (SD) from Baseline to Endpoint in BPRS psychosis cluster score: ITT
Procedure: as §1, §2

[3] = Bifeprunox 30 mg, Week 6/Endpoint
[4] = Bifeprunox 40 mg, Week 6/Endpoint

For `O=c1[nH]c2cccc(N3CCN(Cc4cccc(-c5ccccc5)c4)CC3)c2o1` [Bifeprunox, 7-[4-([1,1′-biphenyl]-3-ylmethyl)-1-piperazinyl]-2(3H)-benzoxazolone], the “CGI Improvement Minimally Worse, %” value ([1]; 30 mg, Week 2) was “(8%)”, the “CGI Improvement Much Improved, %” value ([1]; 30 mg, Week 2) was “(29%)” and the “CGI Improvement Much Worse, %” value ([1]; 30 mg, Week 2) was “(3%)”. The “CGI Improvement No Change, %” value ([1]; 30 mg, Week 2) was “(24%)”, the “CGI Improvement Very Much Improved, %” value ([1]; 30 mg, Week 2) was “(3%)” and the “CGI Improvement Very Much Worse, %” value ([1]; 30 mg, Week 2) was “(<1%)”. The “CGI Improvement Minimally Improved, %” value ([1]; 30 mg, Week 3) was “(28%)”, the “CGI Improvement Minimally Worse, %” value ([1]; 30 mg, Week 3) was “(7%)” and the “CGI Improvement Much Improved, %” value ([1]; 30 mg, Week 3) was “(27%)”. For the same compound, the “CGI Improvement Much Worse, %” value ([1]; 30 mg, Week 3) was “(4%)”, the “CGI Improvement No Change, %” value ([1]; 30 mg, Week 3) was “(26%)” and the “CGI Improvement Very Much Improved, %” value ([1]; 30 mg, Week 3) was “(6%)”. For the same compound, the “CGI Improvement Very Much Worse, %” value ([1]; 30 mg, Week 3) was “(<1%)”, the “CGI Improvement Minimally Improved, %” value ([1]; 30 mg, Week 4) was “(26%)” and the “CGI Improvement Minimally Worse, %” value ([1]; 30 mg, Week 4) was “(9%)”. For the same compound, the “CGI Improvement Much Improved, %” value ([1]; 30 mg, Week 4) was “(26%)”, the “CGI Improvement Much Worse, %” value ([1]; 30 mg, Week 4) was “(4%)” and the “CGI Improvement No Change, %” value ([1]; 30 mg, Week 4) was “(24%)”. The “CGI Improvement Very Much Improved, %” value ([1]; 30 mg, Week 4) was “(9%)”, the “CGI Improvement Very Much Worse, %” value ([1]; 30 mg, Week 4) was “(<1%)” and the “CGI Improvement Minimally Improved, %” value ([1]; 30 mg, Week 6/Endpoint) was “(21%)”. The “CGI Improvement Minimally Worse, %” value ([1]; 30 mg, Week 6/Endpoint) was “(11%)”, the “CGI Improvement Much Improved, %” value ([1]; 30 mg, Week 6/Endpoint) was “(28%)” and the “CGI Improvement Much Worse, %” value ([1]; 30 mg, Week 6/Endpoint) was “(6%)”. For the same compound, the “CGI Improvement No Change, %” value ([1]; 30 mg, Week 6/Endpoint) was “(24%)”, the “CGI Improvement Very Much Improved, %” value ([1]; 30 mg, Week 6/Endpoint) was “(9%)” and the “CGI Improvement Very Much Worse, %” value ([1]; 30 mg, Week 6/Endpoint) was “(<1%)”. For the same compound, the “CGI Improvement Minimally Improved, %” value ([1]; 40 mg, Week 2) was “(37%)”, the “CGI Improvement Minimally Worse, %” value ([1]; 40 mg, Week 2) was “(7%)” and the “CGI Improvement Much Improved, %” value ([1]; 40 mg, Week 2) was “(19%)”. For the same compound, the “CGI Improvement Much Worse, %” value ([1]; 40 mg, Week 2) was “(11%)”, the “CGI Improvement No Change, %” value ([1]; 40 mg, Week 2) was “(22%)” and the “CGI Improvement Very Much Improved, %” value ([1]; 40 mg, Week 2) was “(4%.)”. For the same compound, the “CGI Improvement Minimally Improved, %” value ([1]; 40 mg, Week 3) was “(30%)”, the “CGI Improvement Minimally Worse, %” value ([1]; 40 mg, Week 3) was “(6%)” and the “CGI Improvement Much Improved, %” value ([1]; 40 mg, Week 3) was “(21%)”. For the same compound, the “CGI Improvement Much Worse, %” value ([1]; 40 mg, Week 3) was “(14%)”, the “CGI Improvement No Change, %” value ([1]; 40 mg, Week 3) was “(23%)” and the “CGI Improvement Very Much Improved, %” value ([1]; 40 mg, Week 3) was “(5%)”. For the same compound, the “CGI Improvement Minimally Improved, %” value ([1]; 40 mg, Week 4) was “(29%)”, the “CGI Improvement Minimally Worse, %” value ([1]; 40 mg, Week 4) was “(9%)” and the “CGI Improvement Much Improved, %” value ([1]; 40 mg, Week 4) was “(20%)”. The “CGI Improvement Much Worse, %” value ([1]; 40 mg, Week 4) was “(14%)”, the “CGI Improvement No Change, %” value ([1]; 40 mg, Week 4) was “(21%)” and the “CGI Improvement Very Much Improved, %” value ([1]; 40 mg, Week 4) was “(7%)”. For the same compound, the “CGI Improvement Minimally Improved, %” value ([1]; 40 mg, Week 6/Endpoint) was “(26%)”, the “CGI Improvement Minimally Worse, %” value ([1]; 40 mg, Week 6/Endpoint) was “(11%)” and the “CGI Improvement Much Improved, %” value ([1]; 40 mg, Week 6/Endpoint) was “(19%)”. For the same compound, the “CGI Improvement Much Worse, %” value ([1]; 40 mg, Week 6/Endpoint) was “(15%)”, the “CGI Improvement No Change, %” value ([1]; 40 mg, Week 6/Endpoint) was “(20%)” and the “CGI Improvement Very Much Improved, %” value ([1]; 40 mg, Week 6/Endpoint) was “(9%)”. The “Change from Baseline in BPRS Psychosis Cluster Score, Mean (SD)” value (from here on “Change from Baseline … (SD)”) ([2]; Bifeprunox 30 mg, Week 1) was −1.7 (2.3), the “Change from Baseline in BPRS Psychosis Cluster Score, Median” value (from here on “Change from Baseline … Median”) ([2]; Bifeprunox 30 mg, Week 1) was −1 and the “Change from Baseline … Median” value ([2]; Bifeprunox 30 mg, Week 2) was −2. The “Change from Baseline … (SD)” value ([2]; Bifeprunox 30 mg, Week 3) was −3.1 (3.8), the “Change from Baseline … Median” value ([2]; Bifeprunox 30 mg, Week 3) was −2 and the “Change from Baseline … (SD)” value ([2]; Bifeprunox 30 mg, Week 4) was −3.1 (3.8). For the same compound, the “Change from Baseline … Median” value ([2]; Bifeprunox 30 mg, Week 4) was −3, the “Change from Baseline … (SD)” value [2, 3] was −3.2 (4.2) and the “Change from Baseline … Median” value [2, 3] was −3. For the same compound, the “Change from Baseline in BPRS Psychosis Cluster Score, Trt Effect (bifeprunox—placebo)” value [2, 3] was −1.4, the “Change from Baseline … (SD)” value ([2]; Bifeprunox 40 mg, Week 1) was −1.7 (2.6) and the “Change from Baseline … Median” value ([2]; Bifeprunox 40 mg, Week 1) was −1. The “Change from Baseline … (SD)” value ([2]; Bifeprunox 40 mg, Week 2) was −2.2 (3.5), the “Change from Baseline … Median” value ([2]; Bifeprunox 40 mg, Week 2) was −2 and the “Change from Baseline … (SD)” value ([2]; Bifeprunox 40 mg, Week 3) was −2.5 (4.0). For the same compound, the “Change from Baseline … Median” value ([2]; Bifeprunox 40 mg, Week 3) was −2, the “Change from Baseline … (SD)” value ([2]; Bifeprunox 40 mg, Week 4) was −2.5 (4.2) and the “Change from Baseline … Median” value ([2]; Bifeprunox 40 mg, Week 4) was −1. The “Change from Baseline … (SD)” value [2, 4] was −2.6 (4.4), the “Change from Baseline … Median” value [2, 4] was −2 and the “Change from Baseline in BPRS Psychosis Cluster Score, Trt Effect (bifeprunox—placebo)” value [2, 4] was −1.0. For the same compound, the “BPRS psychosis cluster score, treatment effect (bifeprunox—placebo)” value ([2]; bifeprunox 30 mg) was −1.4, the “mean change (SD) from Baseline to Endpoint in BPRS psychosis cluster score” value ([2]; bifeprunox 30 mg) was −3.2 (4.2) and the “BPRS psychosis cluster score, treatment effect (bifeprunox—placebo)” value ([2]; bifeprunox 40 mg) was −1.0. For the same compound, the “mean change (SD) from Baseline to Endpoint in BPRS psychosis cluster score” value ([2]; bifeprunox 40 mg) was −2.6 (4.4).
